Results taken from patent US20080312317A1 (Eisai R&D Management Co., Ltd., priority 2007, published 2008).

Legend:
Assay type in all cases: cell-based
[1] = system: WiDr human colon cancer cell; assay: Proliferation inhibitory effect, Cell Titer-Glo viability assay, WiDr; conditions: 72 h, 3 days culture with compound, luciferase viability readout, read-out: IC50, concentration for 50% inhibition of cell growth
Experimental: (§1) WiDr human colon cancer cells cultured in RPMI1640 medium containing 10% fetal bovine serum, penicillin (100 unit/ml) and streptomycin (100 μg/ml) (SIGMA product) were seeded into a 96-well plate by 2×10^3 cells/90 μl/well. After culturing the cells overnight in a CO2 incubator, 10 μl of the compound (P15) which is diluted in series in 3-folds was added in each well above, and cultured for another 3 days. Then, 50 μl of Cell Titer-Glo Luminescent Cell Viability Assay (Promega product) was added thereto, cells were shaken for 2 minutes and allowed to stand for 15 minutes to allow reaction. After completing the reaction, luciferase activity was measured using the luminometer. The thus obtained measurement value was given as an index for the number of living cells in each well.
The same experiment as in Test Example 1 was carried out, except that the compound (P15) was changed to the compound (P16). The concentration (IC50 value) of the compound (P16) required for 50% inhibition of WiDr human colon cancer cell growth was determined.

[2] = system: U937 human leukemia cell; assay: Proliferation inhibitory effect, Cell Titer-Glo viability assay, U937; conditions: U-937, 72 h, 3 days culture with compound, luciferase viability readout, read-out: IC50, concentration for 50% inhibition of cell growth
Experimental: as §1
(§2) The same experiment as above was carried out, except that WiDr human colon cancer cell was changed to U937 human leukemia cell, KP4 human pancreatic cancer cell, MIApaca2 human pancreatic cancer cell, MDA-MB231 human breast cancer cell, MDA-MB435 human breast cancer cell, DU145 human prostate cancer cell, PC9 human lung cancer cell and OVCAR3 human ovarian cancer, respectively. The concentration (IC50 values) of the compound (P15) required for 50% inhibition of each cancer cell was determined. […]

[3] = system: KP4 human pancreatic cancer cell; assay: Proliferation inhibitory effect, Cell Titer-Glo viability assay, KP4; conditions: 72 h, 3 days culture with compound, luciferase viability readout, read-out: IC50, concentration for 50% inhibition of cell growth
Experimental: as §1, §2

[4] = system: MIApaca2 human pancreatic cancer cell; assay: Proliferation inhibitory effect, Cell Titer-Glo viability assay, MIApaca2; conditions: MIA PaCa-2, 72 h, 3 days culture with compound, luciferase viability readout, read-out: IC50, concentration for 50% inhibition of cell growth
Experimental: as §1, §2

[5] = system: MDA-MB231 human breast cancer cell; assay: Proliferation inhibitory effect, Cell Titer-Glo viability assay, MDA-MB231; conditions: MDA-MB-231, 72 h, 3 days culture with compound, luciferase viability readout, read-out: IC50, concentration for 50% inhibition of cell growth
Experimental: as §1, §2

[6] = system: MDA-MB435 human breast cancer cell; assay: Proliferation inhibitory effect, Cell Titer-Glo viability assay, MDA-MB435; conditions: MDA-MB-435, 72 h, 3 days culture with compound, luciferase viability readout, read-out: IC50, concentration for 50% inhibition of cell growth
Experimental: as §1, §2

[7] = system: DU145 human prostate cancer cell; assay: Proliferation inhibitory effect, Cell Titer-Glo viability assay, DU145; conditions: DU-145, 72 h, 3 days culture with compound, luciferase viability readout, read-out: IC50, concentration for 50% inhibition of cell growth
Experimental: as §1, §2

[8] = system: PC9 human lung cancer cell; assay: Proliferation inhibitory effect, Cell Titer-Glo viability assay, PC9; conditions: 72 h, 3 days culture with compound, luciferase viability readout, read-out: IC50, concentration for 50% inhibition of cell growth
Experimental: as §1, §2

[9] = system: OVCAR3 human ovarian cancer; assay: Proliferation inhibitory effect, Cell Titer-Glo viability assay, OVCAR3; conditions: OVCAR-3, 72 h, 3 days culture with compound, luciferase viability readout, read-out: IC50, concentration for 50% inhibition of cell growth
Experimental: as §1, §2

Compound | IC50 [1] [nM] | IC50 [2] [nM] | IC50 [3] [nM] | IC50 [4] [nM] | IC50 [5] [nM] | IC50 [6] [nM] | IC50 [7] [nM] | IC50 [8] [nM] | IC50 [9] [nM]
CC[C@H](O)[C@@H](C)[C@H]1O[C@@H]1C[C@@](C)(O)/C=C/C=C(\C)[C@H]1NC(=O)CCCCCC(OC(C)=O)/C=C/[C@@H]1C (stereo partly drawn) [Compound P15, (2S,3S,4E)-2-((1E,3E,5R)-5-hydroxy-6-{(2R,3R)-3-[(1R,2S)-2-hydroxy-1-methylbutyl]oxiran-2-yl}-1,5-dimethylhexa-1,3-dien-1-yl)-3-methyl-12-oxoazacyclododec-4-en-6-yl acetate] | 570 | 550 | 1300 | 500 | 470 | 1700 | 2300 | 1400 | 430
CC[C@H](O)[C@@H](C)[C@H]1O[C@@H]1C[C@H](C)/C=C/C=C(\C)[C@H]1NC(=O)CCCCCC(OC(C)=O)/C=C/[C@@H]1C (stereo partly drawn) [Compound P16] | 290 | 140 | 300 | 140 | 130 | 380 | 510 | 240 | 97
